# Measurements as given in patent publication US20160313301A1, “METHOD FOR PREDICTING ANTITUMOR EFFICACY OF HSP90 INHIBITOR IN CANCER TREATMENT” (NIPPON KAYAKU KABUSHIKI KAISHA, priority 2013, published 2016).
# “Also recorded” adds a separate entry of the source.
# System: human ovarian cancer cells OC-11-JCK/PTX
# Test: Anti-tumor test in mice transplanted subcutaneously with tumor (OC-11-JCK/PTX)
# Format: in vivo
# Conditions: OC-11-JCK/PTX s.c. in mice
# Experimental: Human ovarian cancer cell lines OC-10-JCK, OC-11-JCK, and TOGY-18, and a human breast cancer cell line MC-19-JCK were obtained from Central Institute for Experimental Animals. Cryopreserved tumor pieces were thawed, and then OC-10-JCK, OC-11-JCK, and MC-19-JCK were transplanted subcutaneously to SCID mice, while TOGY-18 was transplanted subcutaneously to nude mice. After the tumors were grown, the tumors were removed and cut into tumor pieces. The tumor pieces were transplanted subcutaneously to SCID mice or nude mice with trocars. The tumors were maintained by repeated transplantation in the same manner as described above to prepare tumors to be transplanted. Human ovarian cancer cell lines ES-2, SK-OV-3, OV-90, and TOV-21G, and a human lung cancer cell line NCI-H1975 were obtained from American Type Culture Collection (ATCC). The SK-OV-3 and NCI-H1975 cell lines were grown in recommended culture media, of which about 1×10^7 cells were suspended into HBSS and then injected subcutaneously to SCID mice. After the cells formed tumors, the tumors were removed and cut into tumor pieces. The tumor pieces were transplanted subcutaneously to SCID mice with trocars. The tumors were maintained by repeated transplantation in the same manner as described above to prepare tumors to be transplanted. The OV-90 cell line was grown in a recommended culture medium, of which about 1×10^6 cells were suspended into HBSS and then injected subcutaneously to SCID mice. After the cells formed a tumor, the tumor was subjected to an anti-tumor test. The TOV-21G cell line was grown in a recommended culture medium, of which about 1×10^7 cells were suspended into HBSS and then injected subcutaneously to SCID mice. After the cells formed a tumor, the tumor was subjected to the anti-tumor test. The ES-2 cell line was grown in a recommended culture medium, suspended into HBSS, and then injected subcutaneously to nude mice. After the cells formed a tumor, the tumor was removed and cut into tumor pieces. The tumor pieces were transplanted subcutaneously to nude mice with a trocar. […]
smiles,measurement,setting,value
"CC(C)c1cc(-c2n[nH]c(=O)n2-c2ccc(CN3CCN(C)CC3)cc2)c(O)cc1O [A-1, 5-(2,4-dihydroxy-5-isopropyl-phenyl)-4-[4-(4-methyl-piperazin-1-ylmethyl)-phenyl]-2,4-dihydro-[1,2,4]triazol-3-one]",anti-tumor effect (in words),,hardly effective; also recorded: lowly effective
same,T/C % (lowest value from the beginning to the 21st day of administration),40 mg/kg tail vein three times at 4 day intervals,62.4%
